We go through twelve molecules from ChEMBL document CHEMBL4706720, “Pyrrolidine Compounds as Potential Lipid-Lowering Therapeutic in Cardiovascular Disease” (ACS Med Chem Lett, 2021).

A short description of the assay: Inhibition of lipoprotein(a) assembly from Apo(a) and LDL particle in human HepG2 and HEK293 combined conditioned media incubated for 2 hrs by sandwich ELISA.
Consider `CC(Cc1cccc(CN(Cc2cccc(CC(C)(C(=O)O)[C@H]3CCNC3)c2)Cc2cccc(CC(C)(C(=O)O)[C@H]3CCNC3)c2)c1)(C(=O)O)[C@H]1CCNC1` (some centres not stated), for which the IC50 was 108 pM.
Then `O=C(O)[C@@H](Cc1cccc([S+]([O-])c2cccc(C[C@H](C(=O)O)[C@H]3CCNC3)c2)c1)[C@H]1CCNC1`, with 396 pM.
For `O=C(O)[C@@H](Cc1cccc(OCCOc2cccc(C[C@H](C(=O)O)[C@H]3CCNC3)c2)c1)[C@H]1CCNC1` the value was 288 pM.
For `O=C(O)[C@@H](Cc1cccc(NS(=O)(=O)Nc2cccc(C[C@H](C(=O)O)[C@H]3CCNC3)c2)c1)[C@H]1CCNC1` the value was 563 pM; for `O=C(O)[C@@H](Cc1cccc(Nc2cccc(C[C@H](C(=O)O)[C@H]3CCNC3)c2)c1)[C@H]1CCNC1`, 348 pM; for `O=C(O)[C@@H](Cc1cccc(Sc2cccc(C[C@H](C(=O)O)[C@H]3CCNC3)c2)c1)[C@H]1CCNC1`, 360 pM.
For the molecule `O=C(O)[C@@H](Cc1cccc(Oc2cccc(C[C@H](C(=O)O)[C@H]3CCNC3)c2)c1)[C@H]1CCNC1`, the IC50 was found to be 372 pM.
For `O=C(O)[C@@H](Cc1cccc(S(=O)(=O)c2cccc(C[C@H](C(=O)O)[C@H]3CCNC3)c2)c1)[C@H]1CCNC1` the value was 235 pM; for `O=C(O)[C@@H](Cc1cccc(CN(Cc2cccc(C[C@H](C(=O)O)[C@H]3CCNC3)c2)Cc2cccc(C[C@H](C(=O)O)[C@H]3CCNC3)c2)c1)[C@H]1CCNC1`, 96.3 pM.
Then `O=C(O)[C@@H](Cc1cccc(CNCc2cccc(C[C@H](C(=O)O)[C@H]3CCNC3)c2)c1)[C@H]1CCNC1`, with 934 pM; and `COc1cc(F)cc(CN(Cc2cccc(C[C@H](C(=O)O)[C@H]3CCNC3)c2)Cc2cccc(C[C@H](C(=O)O)[C@H]3CCNC3)c2)c1`, with 170 pM.
For `O=C(O)[C@@H](Cc1cccc(COc2cccc(C[C@H](C(=O)O)[C@H]3CCNC3)c2)c1)[C@H]1CCNC1` the value was 359 pM.

One may read the IC50 as the point on the concentration scale where inhibition reaches its midpoint.
